In the experiment the test system is phosphorylated PKC (pPKC). As to the kind of experiment: Mouse enteroid experiment, pPKC Western blot. The format is cell-based. As to conditions: DGK inhibitor 2 μM in the presence of wild-type L. reuteri PTA-6475 conditioned media, 45 min. On the procedure: FIGS. 5a and 5b illustrate that a commercially available DagK inhibitor (DGK inhi) prevents L. reuteri derived-DagK mediated protein kinase C (PKC) phosphorylation in mouse enteroids. FIG. 5a illustrates a Western blot analysis showing proteins isolated from mouse ileal enteroids of 10 week-old germ free (GF) male mice treated with only media control (LDM-4), WT Lr (WT Lr grown in LDM4), DagK inhibitor and DagK inhibitor with WT Lr for 45 min targeting mammalian phosphorylated PKC (pPKC). 10 μg proteins were loaded into each well of an SDS gel. The pPKC synthesis ratio was obtained by image-J analysis where pPKC of […] was set to 1 and used as baseline. FIG. 5b Mean values of n=3 showing pPKC protein concentration (loaded 10 μg) and quantified by densitometry using image-J. GF control groups were set to 1. *P<0.05, **P<0.01, ***P<0.001. n=10 mice per group. One-Way analysis of variance with Bonferroni correction.
Mouse enteroids (contains only intestinal epithelial layer) were derived from 10 week-old germ free (GF) BALB/c mouse. The enteroids were grown to form a monolayer and were induced with LDM4 media (control), wild-type L. reuteri PTA-6475 conditioned media (50 to 3 kDa cut off), diacylglycerol kinase (DGK) inhibitor (2 μM) only or DGK inhibitor (2 μM) with wild-type L. reuteri PTA-6475 conditioned media (CM; 50 to 3 kDa cut off). […]
(In general: Immunoblotting shows a protein as a band on a membrane.)

Turning to `Cc1nc2sccn2c(=O)c1CCN1CCC(=C(c2ccccc2)c2ccc(F)cc2)CC1` [DGK inhibitor, 6-[2-(4-[(4-fluorophenyl)phenylmethylene]-1-piperidinyl)ethyl]-7-methyl-5H-thiazolo-[3,2-a]pyrimidine-5-one], the PKC phosphorylation entry is reported as “increased PKC phosphorylation”.

Source of the values: patent US12201656B2, “Selection of bacterial strains useful in allergy treatment” (BioGaia AB, priority 2016, dated 2025).
